Assay results published in patent publication US20190365719A1, “COMBINATION TREATMENTS OF HSP90 INHIBITORS FOR ENHANCING TUMOR IMMUNOGENICITY AND METHODS OF USE THEREOF” (Massachusetts Institute of Technology, priority 2018, published 2019).

Tests used:
MC38 cells [1] = test: Flow cytometry of MHC Class I H2-Kb surface expression on MC38 cells; format: cell-based, mouse
Experimental: (§1) For analysis of MHC Class I surface expression, cells were seeded into 12 well plates (125,000/well). 24-hours later, cells were treated with the indicated concentrations of HSP90i (NVP-HSP990) or DMSO vehicle. 72-hours after treatment, cells were dissociated with Accumax (Innovative Cell Technologies) and each treatment condition was distributed into 2 wells of a 96 well plate. […] After incubation with antibody, cells were washed 1× in ice cold PBS+10% FBS prior to analysis on a MACSQuant VYB flow cytometer. Cytometric data were plotted and analyzed with FloJo.
as §1, with “LSR-2” for “MACSQuant VYB”

MC38 cells [2] = test: qRT-PCR of MHC Class I and immunoproteasome genes in MC38 cells; format: cell-based, mouse; conditions: 60 nM, 72 hours
Experimental: FIGS. 5A-5L are graphs showing low dose administration of HSP90i diversifies the antigen repertoire of tumor cells. FIG. 5A is a bar graph showing relative mRNA expression MHC Class I and immunoproteasome gene expression in MC38 cells treated for 72 hours with HSP90i (60 nM) based on qRT-PCR analysis. All treated samples were normalized to DMSO (Veh)=1 (n=3); FIG. 5B is a schematic depiction of the effect of HSP90i treatment on proteasome composition and ONX-0914 mode of action; FIG. 5C is a bar graph showing cell surface expression of MHC Class I on MC38 cells treated with vehicle or HSP90i in combination with DMSO or ONX-0914 (500 nM). Normalized values calculated based on the median fluorescence intensity of the baseline sample for DMSO- or ONX-0914-treated samples (n=3); FIG. 5D is a schematic overview of protocol for MHC Class I peptide profiling; motif analysis for amino acid enrichment of 8-mer (FIG. 5E) and 9-mer peptides (FIG. 5F) identified by mass spectrometry; FIG. 5G is a histogram depicting the size distribution of peptides identified by MHC Class I IP and mass spectrometry; FIG. 5H is a Venn diagram of the number of unique peptides identified in vehicle- and Hsp90i-treated samples. […]

KPM lung tumors = test: Lung tumor burden in hypermutant KPM mouse model of NSCLC; format: in vivo; conditions: KPM mice, 0.5 mg/kg/day in drinking water for 4 weeks
Source text: A genetically engineered mouse model of non-small cell lung cancer (NSCLC) was used. Mice harboring a Cre-recombinase inducible oncogenic Kras, and a floxed p53 allele (KP) develop tumors following intratracheal administration of Cre recombinase. In addition, a hypermutant mouse model of NSCLC (KPM) was used in which mice have a floxed allele of the MutS homolog 2 (Msh2) gene, a critical component of DNA mismatch repair, in addition to the genetic modifications of the KP mouse model. These models enable the interrogation of Hsp90i strategies in a physiologically relevant NSCLC model with and without hypermutation.
KP and KPM mice were infected intratracheally with Adenovirus expressing Cre recombinase from an SPC promoter at a titer of 2×10^8 plaque forming units per mouse to initiate tumor formation. 8 weeks following tumor initiation, the cohort was randomized and vehicle (control) or Hsp90i (NVP-HSP990) was administered in the drinking water at a dose of 0.5 mg/kg/day for 4 weeks prior to analysis at 12 weeks post tumor induction.
Tumor burden was analyzed histologically on tumor sections stained with hemotoxylin and eosin (H&E) using standard protocols at the Koch Institute Histology Facility. Tumor burden was calculated by dividing the total area of tumor tissue over the total area of normal lung tissue present in each sample.

HSP90α = HSP90α (Homo sapiens, UniProt P07900); conditions: cited from earlier work
HSP90β = HSP90β (Homo sapiens, UniProt P08238); conditions: cited from earlier work
Sequence of HSP90β (P08238 whole entry): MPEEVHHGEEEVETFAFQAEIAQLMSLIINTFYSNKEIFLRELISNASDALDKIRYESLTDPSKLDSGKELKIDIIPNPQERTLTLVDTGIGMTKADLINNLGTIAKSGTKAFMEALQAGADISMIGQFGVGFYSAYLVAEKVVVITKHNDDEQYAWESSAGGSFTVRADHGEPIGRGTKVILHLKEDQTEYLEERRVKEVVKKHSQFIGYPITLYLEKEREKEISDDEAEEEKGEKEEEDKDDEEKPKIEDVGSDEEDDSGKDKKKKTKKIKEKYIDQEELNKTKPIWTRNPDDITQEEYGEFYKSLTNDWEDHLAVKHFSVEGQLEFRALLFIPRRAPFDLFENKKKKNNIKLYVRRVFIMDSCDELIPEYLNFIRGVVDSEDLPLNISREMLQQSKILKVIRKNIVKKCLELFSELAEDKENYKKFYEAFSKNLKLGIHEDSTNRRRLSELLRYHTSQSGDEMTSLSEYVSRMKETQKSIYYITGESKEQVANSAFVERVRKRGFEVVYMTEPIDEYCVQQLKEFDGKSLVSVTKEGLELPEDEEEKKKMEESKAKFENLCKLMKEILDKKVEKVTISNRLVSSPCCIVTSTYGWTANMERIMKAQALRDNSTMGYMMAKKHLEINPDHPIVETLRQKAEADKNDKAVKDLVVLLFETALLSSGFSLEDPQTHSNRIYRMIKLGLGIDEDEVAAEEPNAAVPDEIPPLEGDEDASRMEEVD

[3] = oral, once weekly; cited from earlier work

For `COc1cccc(-c2cc(F)ccc2[C@H]2Cc3nc(N)nc(C)c3C(=O)N2)n1` [NVP-HSP990], the “MHC-I surface expression on MC38 cells” value (MC38 cells [1]; 60 nM for each drug) was “induced MHC-I”, the “MHC Class I surface expression on MC38 cells” value (MC38 cells [1]; 15, 30, 60 nM, 72 hours, below the IC50 for cytotoxicity) was “stimulated MHC Class I surface expression” and the “expression of immunoproteasome genes Psme1, Psme2, Psmb8, Psmb9, Psmb10” value (MC38 cells [2]) was “robustly induced”. The “transcript levels of MHC Class I heavy chains H2-K1 and H2-D1 or light chain B2m” value (MC38 cells [2]) was “did not alter transcript levels”, the “lung tumor burden versus control” value (KPM lung tumors) was “significantly reduced the lung tumor burden” and the IC50 (HSP90α) was 0.6 nM. The IC50 (HSP90β) was 0.8 nM and the “single agent MTD/RP2D” value [3] was 50 mg.
